These are literature values, as cited in patent publication US20110195928A1, “Administration of Copper to an Animal” (priority 2001, published 2011).

The conditions of this data set: general statement of the description.

Regarding copper edtate [edtates], the Solubility in water result is on record as “insoluble”.
